US9758489B2, “Azepane derivatives and methods of treating hepatitis B infections” (Novira Therapeutics, Inc., priority 2013, dated 2017)

What was measured:
[1] = target: HBV C150Bo protein (mutant C150 HBV capsid protein labeled with BoDIPY-FL) (Hepatitis B virus genotype D subtype adw, UniProt P03147, C107A/C48A/C61A/R150C); assay: HBV assembly assay (fluorescence quenching in vitro capsid assembly); type: biochemical; details: for IC50: HBV assembly assay, read-out: Activity (HBV assembly potency, IC50); for Activity (HBV assembly assay): at about 10 μM, 50 mM Hepes pH 7.5, 150 mM NaCl, 1 hour at room temperature
HBV C150Bo protein (mutant C150 HBV capsid protein labeled with BoDIPY-FL), sequence (P03147 1-150 C48A/C61A/C107A/R150C): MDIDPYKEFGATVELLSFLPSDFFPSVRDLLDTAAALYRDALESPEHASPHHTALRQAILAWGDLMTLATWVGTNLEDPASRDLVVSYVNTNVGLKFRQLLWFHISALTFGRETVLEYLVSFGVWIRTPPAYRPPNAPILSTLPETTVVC

[2] = system: HBV replication in HepG2-2.2.15 cells; assay: Dot-blot assay: inhibition of HBV replication in HBV-producing hepatoma cell line; type: cell-based; details: Hepatitis B virus, 144 h, six days, reduction in HBV DNA levels
Protocol: Compounds active in the HBV assembly assay are tested for their activity and toxicity in cellular assay. In the first anti-viral assay, the ability of compounds to inhibit HBV replication in an HBV-producing hepatoma cell line using the dot-blot method is evaluated.
Briefly, confluent monolayers of HepG2-2.2.15 cells are incubated with complete medium containing various concentrations of a test compound. Three days later, the culture medium is replaced with fresh medium containing the appropriately diluted test compound. Six days following the initial administration of the test compound, the cell culture supernatant is collected, and cell lysis is performed. The samples are applied onto Nylos membranes and DNA is immobilized to the membrane by UV cross-linking. After pre-hybridization, the HBV probe is added and the hybridization is performed overnight. The membranes are exposed to the Kodak films; antiviral activity is calculated from the reduction in HBV DNA levels (EC50). The EC50 for antiviral activity is calculated from the dose response curves of active compounds. Assay performance over time is monitored by the use of the standard positive control compounds ETV, BAY 41-4109, and HAP-1.
In the first anti-viral assay, the ability of compounds to inhibit HBV replication in an HBV-producing hepatoma cell line using the dot-blot method was evaluated.
Confluent monolayers of HepG2-2.2.15 cells were incubated with complete medium containing various concentrations of a test compound. Three days later, the culture medium was replaced with fresh medium containing the appropriately diluted test compound. Six days following the initial administration of the test compound, the cell culture supernatant was collected, and cell lysis was performed. The samples were applied onto Nylos membranes and DNA was immobilized to the membrane by UV cross-linking. After pre-hybridization, the HBV probe was added and the hybridization was performed overnight. The membranes were exposed to the Kodak films; antiviral activity was calculated from the reduction in HBV DNA levels (EC50). The EC50 for antiviral activity was calculated from the dose response curves of active compounds. Assay performance over time was monitored by the use of the standard positive control compounds ETV, BAY 41-4109, and HAP-1.

Row | Structure (SMILES) | IC50 [1] | Activity (HBV assembly assay) [1] | inhibition at 10 µM [2]
1 | CCc1cncc(Cl)c1N1CCCN(C(=O)Nc2ccc(F)c(Cl)c2)CC1 [Compound 107] | < 20 µM | + (>50% activity at about 10 μM) | > 50%
2 | Cc1cncc(C)c1N1CCCN(C(=O)Nc2ccc(F)c(Cl)c2)CC1 [Compound 047] |  | + (>50% activity at about 10 μM) | > 50%
3 | O=C(Nc1ccc(F)c(Cl)c1)C1CCCN(c2c(Cl)cncc2Cl)CC1 (stereo not shown) [Compound 055] |  | + (>50% activity at about 10 μM) | 
4 | CC1CN(C(=O)Nc2ccc(F)c(Cl)c2)CCN(c2c(Cl)cncc2Cl)C1 (stereo not shown) [Compound 097] |  | + (>50% activity at about 10 μM) | > 50%
5 | O=C(Nc1ccc(F)c(Cl)c1)N1CCCN(c2c(Cl)cncc2Cl)CC1 [Compound 040] |  |  | > 50%
6 | O=C(Nc1ccc(F)c(Cl)c1)N1CCCN(c2c(Cl)cncc2Cc2ccccc2)CC1 [Compound 115] |  |  | > 50%
7 | O=C(Nc1cc(F)c(F)c(F)c1)N1CCCN(c2c(Cl)cncc2Cl)CC1 [Compound 025] |  |  | > 50%
8 | CC1CCN(c2c(Cl)cncc2Cl)CCN1C(=O)Nc1ccc(F)c(Cl)c1 (stereo not shown) [Compound 092] | < 20 µM | + (>50% activity at about 10 μM) | > 50%
9 | O=C(Nc1ccc(F)c(Cl)c1)N1CCCN(c2c(Cl)cncc2Cl)CC1 [Compound 005] |  | + (>50% activity at about 10 μM) | 
10 | COCCc1cncc(Cl)c1N1CCCN(C(=O)Nc2ccc(F)c(Cl)c2)CC1 [Compound 129] |  |  | > 50%
11 | O=C(Nc1ccc(F)c(Cl)c1)N1CCCN(c2c(Cl)cncc2C2CC2)CC1 [Compound 109] | < 20 µM | + (>50% activity at about 10 μM) | > 50%
12 | O=C(Nc1cccc(Cl)c1)N1CCCN(c2c(Cl)cncc2Cl)CC1 [Compound 010] |  | + (>50% activity at about 10 μM) | > 50%
13 | O=C(Nc1ccc(F)c(Cl)c1)N1C2CCC1CN(c1c(Cl)cncc1Cl)CC2 (stereo not shown) [Compound 121] |  |  | > 50%
14 | COC1CN(C(=O)Nc2ccc(F)c(Cl)c2)CCN(c2c(Cl)cncc2Cl)C1 (stereo not shown) [Compound 130] |  |  | > 50%
15 | O=C(Nc1ccc(F)c(F)c1)C1CCCN(c2c(Cl)cncc2Cl)CC1 (stereo not shown) [Compound 056] |  | + (>50% activity at about 10 μM) | > 50%
16 | O=C(Nc1ccc(Cl)c(F)c1)N1CCCN(c2c(Cl)cncc2Cl)CC1 [Compound 049] |  |  | > 50%
17 | O=C(Nc1ccc(F)c(Cl)c1)N1CCCN(c2c(Cl)cncc2CO)CC1 [Compound 126] |  |  | > 50%

Row | Structure (SMILES) | IC50 [1] | Activity (HBV assembly assay) [1] | inhibition at 10 µM [2]
18 | O=C(Nc1ccc(F)c(F)c1)N1C2CCC1CN(c1c(Cl)cncc1Cl)CC2 (stereo not shown) [Compound 120] |  | + (>50% activity at about 10 μM) | > 50%
19 | O=C(Nc1ccc(F)c(Cl)c1)N1CCN(c2c(Cl)cncc2Cl)CC(CO)C1 (stereo not shown) [Compound 099] |  | + (>50% activity at about 10 μM) | > 50%
20 | O=C(Nc1ccc(F)c(Cl)c1)N1CCCN(c2c(Cl)cncc2Cl)CC1Cc1ccccc1 (stereo not shown) [Compound 091] | < 20 µM | + (>50% activity at about 10 μM) | 
21 | Cc1cncc(Cl)c1N1CCCN(C(=O)Nc2ccc(F)c(Cl)c2)CC1 [Compound 044] |  | + (>50% activity at about 10 μM) | > 50%
22 | O=C(Nc1cccc(Cl)c1)N1CCCN(c2c(Cl)cncc2C2CC2)CC1 [Compound 110] | < 20 µM | + (>50% activity at about 10 μM) | 
23 | O=C(Nc1ccc(F)c(Cl)c1)N1CCCN(c2c(F)cncc2Cl)CC1 [Compound 045] |  | + (>50% activity at about 10 μM) | > 50%
24 | CCOC1CN(C(=O)Nc2ccc(F)c(Cl)c2)CCN(c2c(Cl)cncc2Cl)C1 (stereo not shown) [Compound 131] |  |  | > 50%
25 | CCc1cncc(Cl)c1N1CCCN(C(=O)Nc2cccc(Cl)c2)CC1 [Compound 108] | < 20 µM | + (>50% activity at about 10 μM) | 
26 | O=C(Nc1cccc(F)c1)N1CCCN(c2c(Cl)cncc2Cl)CC1 [Compound 011] |  | + (>50% activity at about 10 μM) | > 50%
27 | O=C(Nc1ccc(F)c(Cl)c1)N1CC2CC(C1)N(c1c(Cl)cncc1Cl)C2 (stereo not shown) [Compound 065] |  |  | > 50%
28 | O=C(Nc1ccc(F)c(Cl)c1)N1CC2CC1CCN2c1c(Cl)cncc1Cl (stereo not shown) [Compound 077] |  |  | > 50%
29 | O=C(Nc1ccc(F)c(F)c1)N1CCCN(c2c(Cl)cncc2Cl)CC1 [Compound 004] |  | + (>50% activity at about 10 μM) | 
30 | O=C(Nc1ccc(F)c(Cl)c1)N1CCCN(c2ccnc(Cl)c2Cl)CC1 [Compound 041] |  |  | > 50%
31 | O=C(Nc1ccc(F)c(Cl)c1)N1CCN(c2c(Cl)cncc2Cl)CC(O)C1 (stereo not shown) [Compound 100] |  | + (>50% activity at about 10 μM) | > 50%
32 | COC(=O)C1CN(C(=O)Nc2ccc(F)c(Cl)c2)CCN(c2c(Cl)cncc2Cl)C1 (stereo not shown) [Compound 098] |  | + (>50% activity at about 10 μM) | 
33 | CC1CN(c2c(Cl)cncc2Cl)CCCN1C(=O)Nc1ccc(F)c(Cl)c1 (stereo not shown) [Compound 087] |  |  | > 50%
